From patent US10597388B2, “Pyridazinone herbicides” (FMC CORPORATION, priority 2014, dated 2020)

Assays:
Experiment in all cases: Test C greenhouse herbicide test, pre- and postemergence
Type in all cases: in vivo
[1] = test system: morningglory (Ipomoea coccinea)
Description: (§1) Seeds of plant species selected from blackgrass (Alopecurus myosuroides), ryegrass, Italian (Italian ryegrass, Lolium multiflorum), wheat (winter wheat, Triticum aestivum), galium (catchweed bedstraw, Galium aparine), corn (Zea mays), large crabgrass, large (large crabgrass, Digitaria sanguinalis), foxtail, giant (giant foxtail, Setaria faberii), johnsongrass (Sorghum halepense), lambsquarters (Chenopodium album), morningglory (Ipomoea coccinea), nutsedge, yellow (yellow nutsedge, Cyperus esculentus), pigweed (Amaranthus retroflexus), ragweed (common ragweed, Ambrosia elatior), soybean (Glycine max), barnyardgrass (Echinochloa crus-galli), oilseed rape (Brassica napus), waterhemp (common waterhemp, Amaranthus rudis), and velvetleaf (Abutilon theophrasti) were planted into a blend of loam soil and sand and treated preemergence with test chemicals formulated in a non-phytotoxic solvent mixture which included a surfactant.
(§2) At the same time, plants selected from these crop and weed species and also chickweed (common chickweed, Stellaria media), kochia (Kochia scoparia), and oat, wild (wild oat, Avena fatua), were planted in pots containing Redi-Earth® planting medium (Scotts Company, 14111 Scottslawn Road, Marysville, Ohio 43041) comprising spaghnum peat moss, vermiculite, wetting agent and starter nutrients and treated with postemergence applications of test chemicals formulated in the same manner. Plants ranged in height from 2 to 18 cm (1- to 4-leaf stage) for postemergence treatments. Treated plants and controls were maintained in a greenhouse for 13 to 15 d, after which time all species were compared to controls and visually evaluated. Plant response ratings, summarized in Table C, are based on a scale of 0 to 100 where 0 is no effect and 100 is complete control. A dash (-) response means no test result.

soybean (Glycine max) = test system: soybean (Glycine max)
Description: as §1, §2

[2] = test system: foxtail, giant (giant foxtail, Setaria faberii)
Description: as §1, §2

[3] = test system: blackgrass (Alopecurus myosuroides)
Description: as §1, §2

[4] = test system: crabgrass, large (large crabgrass, Digitaria sanguinalis)
Description: as §1, §2

[5] = test system: galium (catchweed bedstraw, Galium aparine)
Description: as §1, §2

[6] = test system: nutsedge, yellow (yellow nutsedge, Cyperus esculentus)
Description: as §1, §2

[7] = test system: wheat (winter wheat, Triticum aestivum)
Description: as §1, §2

[8] = test system: waterhemp (common waterhemp, Amaranthus rudis)
Description: as §1, §2

[9] = test system: pigweed (Amaranthus retroflexus)
Description: as §1, §2

[10] = test system: ryegrass, Italian (Italian ryegrass, Lolium multiflorum)
Description: as §1, §2

[11] = test system: barnyardgrass (Echinochloa crus-galli)
Description: as §1, §2

[12] = test system: velvetleaf (Abutilon theophrasti)
Description: as §1, §2

[13] = test system: lambsquarters (Chenopodium album)
Description: as §1, §2

corn (Zea mays) = test system: corn (Zea mays)
Description: as §1, §2

[14] = Postemergence, 31 g ai/ha, 0 to 100 scale (0 no effect, 100 complete control)
[15] = Postemergence, 125 g ai/ha, scale 0 to 100, 0 is no effect, 100 is complete control
[16] = Postemergence, 250 g ai/ha, scale 0 to 100, 0 no effect, 100 complete control, 13 to 15 d
[17] = Preemergence, 31 g ai/ha, scale 0 to 100, 0 is no effect, 100 is complete control
[18] = Preemergence, 62 g ai/ha, scale 0 to 100, 0 is no effect, 100 is complete control
[19] = Preemergence, 125 g ai/ha, scale 0 to 100, 0 is no effect, 100 is complete control
[20] = Preemergence, 250 g ai/ha, scale 0 to 100, 0 no effect, 100 complete control
[21] = postemergence, 62 g ai/ha, scale 0 to 100, 0 no effect, 100 complete control

In the case of `Cc1nn(C)c(=O)c(-c2c(C)sc3ccc(Br)cc23)c1O` [Compound 22], the “Morningglory plant response rating” value [1, 14] is reported as 100, the “Plant response rating, Morningglory” value [1, 15] is reported as 100 and the “Plant response rating, Morningglory” value [1, 16] is reported as 100. For the same compound, the “Plant response rating, Morningglory” value [1, 17] was 30, the “Plant response rating, Morningglory” value [1, 18] was 85 and the “Plant response rating, Morningglory” value [1, 19] was 100. For the same compound, the “Morningglory plant response rating” value [1, 20] was 100, the “Morningglory plant response rating” value [1, 21] was 100 and the “Soybean plant response rating” value (soybean (Glycine max); [14]) was 0. The “Plant response rating, Soybean” value (soybean (Glycine max); [15]) was 0, the “Plant response rating, Soybean” value (soybean (Glycine max); [16]) was 0 and the “Plant response rating, Soybean” value (soybean (Glycine max); [18]) was 0. The “Plant response rating, Soybean” value (soybean (Glycine max); [19]) was 0, the “Soybean plant response rating” value (soybean (Glycine max); [20]) was 5 and the “Soybean plant response rating” value (soybean (Glycine max); [21]) was 0. For the same compound, the “Foxtail, Giant plant response rating” value [2, 14] was 10, the “Plant response rating, Foxtail, Giant” value [2, 15] was 40 and the “Plant response rating, Foxtail, Giant” value [2, 16] was 35. For the same compound, the “Plant response rating, Foxtail, Giant” value [2, 17] was 5, the “Plant response rating, Foxtail, Giant” value [2, 18] was 15 and the “Plant response rating, Foxtail, Giant” value [2, 19] was 55. For the same compound, the “Foxtail, Giant plant response rating” value [2, 20] was 85, the “Foxtail, Giant plant response rating” value [2, 21] was 15 and the “Blackgrass plant response rating” value [3, 14] was 0. For the same compound, the “Plant response rating, Blackgrass” value [3, 15] was 20, the “Plant response rating, Blackgrass” value [3, 16] was 20 and the “Plant response rating, Blackgrass” value [3, 17] was 5. For the same compound, the “Plant response rating, Blackgrass” value [3, 18] was 20, the “Plant response rating, Blackgrass” value [3, 19] was 40 and the “Blackgrass plant response rating” value [3, 20] was 45. For the same compound, the “Blackgrass plant response rating” value [3, 21] was 0, the “Crabgrass, Large plant response rating” value [4, 14] was 0 and the “Plant response rating, Crabgrass, Large” value [4, 15] was 5. The “Plant response rating, Crabgrass, Large” value [4, 16] was 5, the “Plant response rating, Crabgrass, Large” value [4, 17] was 0 and the “Plant response rating, Crabgrass, Large” value [4, 18] was 0. For the same compound, the “Plant response rating, Crabgrass, Large” value [4, 19] was 0, the “Crabgrass, Large plant response rating” value [4, 20] was 35 and the “Crabgrass, Large plant response rating” value [4, 21] was 5. For the same compound, the “Galium plant response rating” value [5, 14] was 90, the “Plant response rating, Galium” value [5, 15] was 95 and the “Plant response rating, Galium” value [5, 16] was 95. For the same compound, the “Plant response rating, Galium” value [5, 17] was 90, the “Plant response rating, Galium” value [5, 18] was 90 and the “Plant response rating, Galium” value [5, 19] was 95. For the same compound, the “Galium plant response rating” value [5, 20] was 95, the “Galium plant response rating” value [5, 21] was 90 and the “Nutsedge, Yellow plant response rating” value [6, 14] was 35. For the same compound, the “Plant response rating, Nutsedge, Yellow” value [6, 15] was 65, the “Plant response rating, Nutsedge, Yellow” value [6, 16] was 65 and the “Plant response rating, Nutsedge, Yellow” value [6, 17] was 55. The “Plant response rating, Nutsedge, Yellow” value [6, 18] was 45, the “Plant response rating, Nutsedge, Yellow” value [6, 19] was 70 and the “Nutsedge, Yellow plant response rating” value [6, 20] was 70. For the same compound, the “Nutsedge, Yellow plant response rating” value [6, 21] was 50, the “Wheat plant response rating” value [7, 14] was 0 and the “Plant response rating, Wheat” value [7, 15] was 5. The “Plant response rating, Wheat” value [7, 16] was 0, the “Plant response rating, Wheat” value [7, 18] was 0 and the “Plant response rating, Wheat” value [7, 19] was 0. For the same compound, the “Wheat plant response rating” value [7, 20] was 0, the “Wheat plant response rating” value [7, 21] was 0 and the “Waterhemp plant response rating” value [8, 14] was 75. The “Plant response rating, Waterhemp” value [8, 15] was 75, the “Plant response rating, Waterhemp” value [8, 16] was 90 and the “Plant response rating, Waterhemp” value [8, 18] was 80. For the same compound, the “Plant response rating, Waterhemp” value [8, 19] was 100, the “Waterhemp plant response rating” value [8, 20] was 100 and the “Waterhemp plant response rating” value [8, 21] was 70. For the same compound, the “Pigweed plant response rating” value [9, 14] was 85, the “Plant response rating, Pigweed” value [9, 15] was 90 and the “Plant response rating, Pigweed” value [9, 16] was 98. For the same compound, the “Plant response rating, Pigweed” value [9, 17] was 60, the “Plant response rating, Pigweed” value [9, 18] was 100 and the “Plant response rating, Pigweed” value [9, 19] was 100. For the same compound, the “Pigweed plant response rating” value [9, 20] was 100, the “Pigweed plant response rating” value [9, 21] was 75 and the “Ryegrass, Italian plant response rating” value [10, 14] was 60. The “Plant response rating, Ryegrass, Italian” value [10, 15] was 90, the “Plant response rating, Ryegrass, Italian” value [10, 16] was 90 and the “Plant response rating, Ryegrass, Italian” value [10, 17] was 90. For the same compound, the “Plant response rating, Ryegrass, Italian” value [10, 18] was 90, the “Plant response rating, Ryegrass, Italian” value [10, 19] was 95 and the “Ryegrass, Italian plant response rating” value [10, 20] was 95. The “Ryegrass, Italian plant response rating” value [10, 21] was 70, the “Barnyardgrass plant response rating” value [11, 14] was 5 and the “Plant response rating, Barnyardgrass” value [11, 15] was 10. The “Plant response rating, Barnyardgrass” value [11, 16] was 15, the “Plant response rating, Barnyardgrass” value [11, 17] was 5 and the “Plant response rating, Barnyardgrass” value [11, 18] was 5. The “Plant response rating, Barnyardgrass” value [11, 19] was 5, the “Barnyardgrass plant response rating” value [11, 20] was 60 and the “Barnyardgrass plant response rating” value [11, 21] was 5. The “Velvetleaf plant response rating” value [12, 14] was 20, the “Plant response rating, Velvetleaf” value [12, 15] was 80 and the “Plant response rating, Velvetleaf” value [12, 16] was 80. For the same compound, the “Plant response rating, Velvetleaf” value [12, 18] was 60, the “Plant response rating, Velvetleaf” value [12, 19] was 75 and the “Velvetleaf plant response rating” value [12, 20] was 98. The “Velvetleaf plant response rating” value [12, 21] was 50, the “Lambsquarters plant response rating” value [13, 14] was 70 and the “Plant response rating, Lambsquarters” value [13, 15] was 90. For the same compound, the “Plant response rating, Lambsquarters” value [13, 16] was 90, the “Plant response rating, Lambsquarters” value [13, 17] was 25 and the “Plant response rating, Lambsquarters” value [13, 18] was 45. The “Plant response rating, Lambsquarters” value [13, 19] was 90, the “Lambsquarters plant response rating” value [13, 20] was 90 and the “Lambsquarters plant response rating” value [13, 21] was 85. The “Corn plant response rating” value (corn (Zea mays); [14]) was 0, the “Plant response rating, Corn” value (corn (Zea mays); [15]) was 5 and the “Plant response rating, Corn” value (corn (Zea mays); [16]) was 5. For the same compound, the “Plant response rating, Corn” value (corn (Zea mays); [17]) was 0, the “Plant response rating, Corn” value (corn (Zea mays); [18]) was 0 and the “Plant response rating, Corn” value (corn (Zea mays); [19]) was 0. For the same compound, the “Corn plant response rating” value (corn (Zea mays); [20]) was 35 and the “Corn plant response rating” value (corn (Zea mays); [21]) was 5.
